Laboratory results taken from patent US12171813B2, “Methods of and compositions for reducing gene expression and/or activity” (Christiana Care Gene Editing Institute, Inc., priority 2021, dated 2024).

Test system: EGFR gene
Experiment: Screening of SureKill guide RNAs in the EGFR gene for ability to induce indels
Assay type: cell-based
Conditions: transfections of individual guide RNAs (spCas9 RNP); PDMR human lung adenocarcinoma cells with EGFR L858R; DECODR
Protocol: Human lung squamous cell carcinoma NCI-H1703 clone 44-25 cells were derived from NCI-H1703 cells (#CRL-5889) which were purchased from ATCC (Manassas, VA, USA). NCI-H1703 clone 44-25 cells contains R34G mutation (C 4 G) in NFE2L2 gene. H1703 clone 44-25 cells were cultured in ATCC formulation RPMI-1640 with 10% FBS. T75 flasks were used and cells were split 1:5 upon reaching 90% confluency. Human lung adenocarcinoma cells (Dist. Lot. No. LG0703-F948-PDC) were acquired from the National Institute of Health's National Cancer Institute's Patient-Derived Models Repository (PDMR). This PDMR cell line contains the L858R mutation (T 4 G) in the EGFR gene. The PDMR cells were maintained in Advanced DMEM/F12 media containing 10% FBS, 0.4 μg/mL hydrocortisone, 0.01 μg/mL EGF Recombinant Human Protein, 24 μg/mL adenine, and 2 mM L-Glutamine. T75s were used and cells were split 1:3 upon reaching 90% confluency. All cultures were maintained in cell culture incubators at 37° C. and 5% CO2.
Ribonucleoproteins (RNP) are complexed by incubating 250 pmol of purified synthetic gRNA (Synthego Corporation, Redwood City, CA) with 50 pmol of purified spCas9 (Synthego Corporation, Redwood City, CA) at room temperature in nuclease-free 1× TE buffer for 15 minutes.
Transfections were carried out using the Lonza Nuclefector 4d. Cultures in t75s at 90% confluence were split 1:2 24 hours prior to transfection. RNPs were complexed at 250:50 pmol for 30 minutes prior to transfection, during which time cells were harvested and counted. All reactions were 100 μL and contained 1 e6 cells. Lonza SF solution and Nucleofector program CM-130 were used in all transfections of the H1703 cell line. Lonza SE solution and Nucleofector program CA-137 were used in all transfections of the PDMR. After transfection, 500 μL of media that had been equilibrated to cell culture CO2 and temperature conditions was added to each 100 μL cuvettes. Cuvettes were then placed in the incubator. After 20 minutes, the entire content of each cuvette was seeded into 3 mL of media in a 6 well plate. After 72 hours, samples were dissociated using 200 μL Trypsin 0.25% for 5 minutes. 800 μL culture media was used to quench and split into 1.5 mL tubes each containing 500 μL of the sample. Tubes were spun at 300×g for 5 minutes. One of the tubes was placed in the −20° C. freezer and the other was resuspended in 500 μL of Trizol for RNA extraction and cDNA synthesis.
All sequencing was performed on the Applied Biosystems SeqStudio. The BigDye Terminator v3.1 Cycle Sequencing Kit was used to prepare samples for sequencing. Resulting sequences were analyzed with DECODR to determine indel rates (Bloh et al., CRISPR J. 4:120-31 (2021)).
Human EGFR is a frequently mutated gene that is associated with cancers. One of the most common mutations is L858R which results in the creation of a novel PAM site, making it a targetable sequence by CRISPR. Like the R34G mutation, the CRISPR designed to target the L858R mutation is not highly efficient on its own. By combining the L858R-targeting CRISPR with another CRISPR of high efficiency in a downstream intronic region, exon skipping can be induced, resulting in a higher efficiency of functional knockout than the L858R targeting CRISPR alone. To find a suitable gRNA to pair with the L858R targeting CRISPR, we selected the intron between exons 21 and 22 (FIG. 6). A series of gRNAs were created in this region and screened for their ability to induce indels, a measure of their activity using DECODR (Bloh et al., CRISPR J. 4:120-31 (2021)) (Table 3).
In Table 3, all sequences are listed from 5′ to 3′. Indel percent, a measure of CRISPR activity, is based on transfections of individual guide RNAs. All guide RNAs, with the exception of L858R, were designed in the intron between exons 21 and 22.

In the case of “L858R gRNA: guide RNA TCAAGATCACAGATTTTGGG, SEQ ID NO:8, targets EGFR L858R mutation (listed as DNA, chemistry not given here)”, the indel % is reported as 73.2%.
